Like-named read-outs stand apart in the source and are kept apart here.
Experiments:
[1] = target: T1, human bile salt export pump (BSEP) efflux transporter (Homo sapiens, UniProt O95342); experiment: BSEP Vesicular Transport Inhibition Assay (IC50 determination); type: biochemical; conditions: human BSEP (HEK293) vesicles; taurocholate 0.2 μM; 4 mM Mg-ATP; 10 concentrations, 1 replicate; in nM
T1 construct: purchased SOLVO Biotechnology Charles River Laboratories, Szeged, Hungary; host or cells: HEK293 (inside out membrane vesicles)
T1 sequence (O95342 whole entry): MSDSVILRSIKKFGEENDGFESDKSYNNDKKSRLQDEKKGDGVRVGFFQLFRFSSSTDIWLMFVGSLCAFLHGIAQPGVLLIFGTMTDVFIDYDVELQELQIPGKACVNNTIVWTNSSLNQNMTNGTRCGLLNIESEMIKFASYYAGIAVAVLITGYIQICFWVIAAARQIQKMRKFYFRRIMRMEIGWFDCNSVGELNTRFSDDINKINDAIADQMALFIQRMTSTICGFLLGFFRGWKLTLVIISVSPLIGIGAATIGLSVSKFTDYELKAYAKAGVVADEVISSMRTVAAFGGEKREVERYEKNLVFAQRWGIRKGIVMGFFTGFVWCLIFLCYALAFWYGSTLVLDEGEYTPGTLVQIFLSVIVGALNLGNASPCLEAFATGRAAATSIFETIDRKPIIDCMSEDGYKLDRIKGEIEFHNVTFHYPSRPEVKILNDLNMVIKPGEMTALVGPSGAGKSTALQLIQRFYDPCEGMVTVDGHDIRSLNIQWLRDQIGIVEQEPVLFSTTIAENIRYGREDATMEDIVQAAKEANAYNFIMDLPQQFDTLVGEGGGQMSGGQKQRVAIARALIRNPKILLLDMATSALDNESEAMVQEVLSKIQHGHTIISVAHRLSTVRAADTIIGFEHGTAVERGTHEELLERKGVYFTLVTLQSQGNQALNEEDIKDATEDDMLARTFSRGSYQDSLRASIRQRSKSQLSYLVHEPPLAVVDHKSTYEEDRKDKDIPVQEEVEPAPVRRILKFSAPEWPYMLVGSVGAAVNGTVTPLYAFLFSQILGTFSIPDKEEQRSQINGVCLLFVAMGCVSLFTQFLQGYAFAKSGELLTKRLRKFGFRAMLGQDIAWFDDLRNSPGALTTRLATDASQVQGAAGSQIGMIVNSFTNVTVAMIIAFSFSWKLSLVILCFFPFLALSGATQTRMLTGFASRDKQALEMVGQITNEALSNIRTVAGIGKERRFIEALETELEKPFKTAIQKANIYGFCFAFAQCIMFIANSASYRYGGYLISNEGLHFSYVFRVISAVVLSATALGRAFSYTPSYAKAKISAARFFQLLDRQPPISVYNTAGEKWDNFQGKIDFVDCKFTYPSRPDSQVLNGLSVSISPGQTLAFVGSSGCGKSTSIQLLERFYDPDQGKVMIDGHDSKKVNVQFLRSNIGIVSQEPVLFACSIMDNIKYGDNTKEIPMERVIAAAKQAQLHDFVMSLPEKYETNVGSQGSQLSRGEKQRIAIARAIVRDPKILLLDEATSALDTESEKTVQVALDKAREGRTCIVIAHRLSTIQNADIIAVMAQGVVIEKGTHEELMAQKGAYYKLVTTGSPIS
Method in brief: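 Inside-out membrane vesicles from HEK293 cells expressing human BSEP were incubated with taurocholate probe substrate and compound (10 concentrations, single replicate) with 4 mM Mg-ATP, or 4 mM AMP for background, for 5 min at 37 °C. Vesicle-trapped substrate was quantified by liquid scintillation counting after filtration.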

[2] = Example 9 pharmacokinetics assay for the PK and PD study Part I, II and III (plasma, tumor, liver); type: in vivo, BALB/c nude mice; conditions: mouse, po, 10 mg/kg, p.o., single dose, ± SEM
Experimental: For the PK and PD study Part I, agents were administered to BALB/c nude mice bearing A375 human melanoma xenografts tumors. Dabrafenib, Compound 218 and Compound 157 were dosed via p.o. once on day 1. Dabrafenib was dosed at 100 mg/kg. Compound 218 and Compound 157 were dosed at 10 mg/kg.
For the PK and PD study Part II, agents were administered to BALB/c nude mice bearing A375 human melanoma xenografts tumors. Compound 133, Compound 144 and Compound 198 were dosed at 10 mg/kg via p.o. once on day 1.
For the PK and PD study Part III, agent was administered to BALB/c nude mice bearing A375 human melanoma xenografts tumors. Compound 204 were dosed at 10 mg/kg via p.o. once on day 1.
The plasma samples were collected at predetermined time points for PK analysis. The mice were euthanized at predetermined time points post the treatment. The blood samples were collected into the 1.5 mL Eppendorf tubes containing 15 μL of 0.5 M EDTA-K2. And then the anticoagulant blood samples were centrifuged at 2,500 g at 4° C. for 15 minutes. The plasma samples were separated into 2 aliquots. The 1st was used for PK analysis, and the 2nd served as backup. The samples were stored at −80° C. before bioanalysis.
The tumor samples were collected at predetermined time points for PK and WB analysis. The tumor was dissected out and split into 3 parts. The 1st part was used for PK analysis, the 2nd part was used for WB analysis and the last one served as backup for study. The samples were transferred into pre-labeled tubes and quickly froze in liquid nitrogen within 2 minutes after dissection. The samples were stored at −80° C. before bioanalysis.
Liver samples were collected at predetermined time points for PK analysis. The left lobe of the liver was dissected out and split into 2 parts. The 1st part was used for PK analysis and the 2nd part served as the backup for the study. The samples were transferred into pre-labeled tubes and quickly froze in liquid nitrogen within 2 minutes after dissection. The samples were stored at −80° C. before bioanalysis.
The harvested plasma, tumor and liver samples were processed for pharmacokinetics analysis by LC-MS/MS with a concentration range of 5.00-10,000 ng/mL for Compound 218, Compound 157 and Compound 133 in plasma, 0.500-1,000 ng/ml for Compound 218 in liver and tumor homogenate, 0.200-400 ng/mL for Compound 157, Dabrafenib and Compound 133 in liver and tumor homogenate, 0.500-1000 ng/mL for Dabrafenib and Compound 204 in plasma, 0.200-200 ng/mL for Compound 204 in liver and tumor homogenate, 20.0-20,000 ng/mL for Compound 144 and Compound 198 in plasma, 1.00-1,000 ng/mL for Compound 144 and Compound 198 in liver and tumor homogenate.

[3] = liver, read-out: Mean Concentration in Liver
[4] = plasma, read-out: Mean Concentration in Plasma
[5] = tumor, read-out: Mean Concentration in Tumor

CCN(C)S(=O)(=O)Nc1ccc(F)c(Oc2ccc3ncn(C4CC5(CCN(C6CC7(CCN(c8cc9c(cc8F)c(N8CCC(=O)NC8=O)nn9C)CC7)C6)CC5)C4)c(=O)c3c2)c1C#N (centres unmarked) [Compound 198, 6-[2-cyano-3-[[ethyl(methyl)sulfamoyl]amino]-6-fluoro-phenoxy]-3-[7-[7-[3-(2,4-dioxohexahydropyrimidin-1-yl)-5-fluoro-1-methyl-indazol-6-yl]-7-azaspiro[3.5]nonan-2-yl]-7-azaspiro[3.5]nonan-2-yl]-4-oxo-quinazoline]
BSEP Inhibition/IC50 [1]: 15250
concentration at 6 h [2, 3]: 2240 ± 416 ng/g
concentration at 12 h [2, 3]: 1020 ± 177 ng/g
concentration at 1 h [2, 4]: 2430 ± 91.7 ng/mL
concentration at 6 h [2, 4]: 2670 ± 117 ng/mL
concentration at 12 h [2, 4]: 1700 ± 172 ng/mL
concentration at 24 h [2, 4]: 573 ± 94.2 ng/mL
concentration at 1 h [2, 5]: 441 ± 38.8 ng/g
concentration at 6 h [2, 5]: 1120 ± 28.5 ng/g
concentration at 12 h [2, 5]: 776 ± 107 ng/g
concentration at 24 h [2, 5]: 383 ± 128 ng/g

Source: patent publication US20260297060A1, “COMPOUNDS FOR THE DEGRADATION OF MUTANT BRAF” (C4 THERAPEUTICS, INC., priority 2023, published 2026)
